Measured values reported in publication PMC12362618, “Development of the First Small-Molecule Inhibitor Targeting Oncostatin M for Treatment of Breast Cancer” (Journal of Medicinal Chemistry, 2025).
Several values for one entry are separate records, joined by “and”; a condition that tells them apart may be missing. Equal values may be shown once. Entries after “also recorded” stand apart in the source; their conditions may differ.

Columns and labels:
15N OSM = target: T1, 15N OSM (Homo sapiens, UniProt P13725); test: 1H,15N HSQC NMR chemical shift perturbation titration; format: binding; details: 100 μM 15N OSM; residues Asp87, Gln90, Arg91, Leu92 at or near site III
T1 construct: ^15N-isotope-labeled OSM^1-187 protein was titrated individually with each of the SMIs; made in house
T1 sequence (P13725 26-212): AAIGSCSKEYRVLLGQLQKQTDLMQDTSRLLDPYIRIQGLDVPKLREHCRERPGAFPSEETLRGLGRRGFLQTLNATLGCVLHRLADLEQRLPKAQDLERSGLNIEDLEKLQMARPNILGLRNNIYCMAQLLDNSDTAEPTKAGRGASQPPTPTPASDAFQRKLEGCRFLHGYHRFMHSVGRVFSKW
Procedure: Protein was prepared and chemical shift perturbation (CSP) experiments were conducted as previously described by Mass et al. For SMI inhibitor titration studies, in a 5 mm NMR tube, 600 μL of a 100 μM sample of ^15N OSM in NMR buffer (50 mM sodium phosphate (pH 6.6), 100 mM sodium chloride, and 5% D2O) was titrated with a 20 mM stock solution of SMI in d6-dimethyl sulfoxide. The SMI stock solutions were added in 0.75–4 μL increments to a final concentration of 260 μM (SMI-10B) or 200 μM (SMI-10B13) and final volumes of 636 μL (SMI-10B) and 614.25 μL (SMI-10B13). Titration points for SMI-10B were: 0, 20, 40, 60, 80, 100, 140, 180, 220, and 260 μM. Titration points for SMI-10B13 were: 0, 0.5, 1.0, 6.0, 10, 20, 30, 40, 50, 60, and 200 μM.

OSM = target: T2, OSM (Homo sapiens, UniProt P13725); test: Fluorescence quenching assay of SMI binding to OSM; details: average of three independent replicates, errors at 95% confidence level, read-out: KD (OSM-SMI dissociation constant)
T2 sequence (P13725 26-252): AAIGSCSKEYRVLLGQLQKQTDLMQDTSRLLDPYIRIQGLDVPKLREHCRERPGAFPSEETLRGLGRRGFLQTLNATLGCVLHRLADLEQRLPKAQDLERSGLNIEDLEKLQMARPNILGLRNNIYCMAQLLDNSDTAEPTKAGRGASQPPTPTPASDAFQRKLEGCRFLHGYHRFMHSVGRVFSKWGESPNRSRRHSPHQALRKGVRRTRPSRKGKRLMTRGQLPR
Procedure: To perform fluorescence quenching assays, 2 mL of 1 μM OSM solution in polymethylmethacrylate cuvettes was prepared by dilution of a concentrated stock solution of recombinant OSM with buffer solution (100 mM sodium chloride, 50 mM sodium phosphate, 50 mM freshly added DTT, pH = 6.6). Cuvettes were titrated with 5 μL increments of a 1 mM small molecule stock solution in DMSO, with a cuvette titrated with an equivalent volume of DMSO as a control. […] In cases where little to no significant quenching was observed, the titration was supplemented with 2.5 μL increments of a 10 mM small molecule stock solution to increase the concentration delivered. The fluorescence intensity measurements were obtained on a Cary Eclipse spectrofluorometer equipped with a Xenon arc lamp. Fluorescence intensities were measured by exciting at 280 nm (4 nm slit width) and recording the emission from 345 to 355 nm with a photomultiplier tube voltage of 700 V, unless otherwise noted. Each titration point was normalized to OSM’s native fluorescence intensity, corrected by adding the decrease in fluorescence intensity caused by dilution with DMSO, and the average value of the three replicates for each point was plotted against concentration of small molecule delivered and fit to a modified Stern–Volmer function as described by Charlier and Plapp. Binding affinity (K D) values were obtained […] from the fitting routine. All curve-fitting analysis was performed in GraphPad Prism 8.0.

[1] = system: T47D and MCF-7 human breast cancer cells; test: MTS cell viability assay; format: cell-based; details: T47D and MCF-7; 100 μM to 0.1 nM, 24 h
Procedure: Cell viability was assessed using the CellTiter 96 AQueous One Solution Cell Proliferation Assay (Promega, cat. no. G3580), following the manufacturer’s instructions. Briefly, T47D and MCF-7 human breast cancer cells were seeded in 96-well plates at a density of 10,000 cells/well in 100 μL of complete growth medium and allowed to adhere overnight. Cells were then treated with a serial dilution (100 μM to 0.1 nM) of SMI-10B, SMI-10B13, Temozolomide (positive control), or vehicle (DMSO) for 24 h. Following treatment, 20 μL of MTS reagent was added directly to each well, and plates were incubated at 37 °C in a humidified incubator with 5% CO2 and imaged after 1 h of incubation. Absorbance was measured at 490 nm by using a microplate reader. Cell viability was expressed as a percentage relative to the vehicle-treated controls, and experiments were performed in triplicate.

[2] = system: OSM-mediated signaling (pSTAT3, pAKT, pJNK, pERK) in T47D cells; test: Immunoblot of OSM-mediated signaling in T47D cells; format: cell-based, human; details: SMI 10 μM, OSM 10 ng/mL, 30 min
Procedure: For immunoblot analysis, T47D breast cancer cells were treated and collected in the same manner as described above for the ELISA preparation. After lysate collection, samples were run on a 10% SDS-PAGE gel and transferred to a nitrocellulose membrane via semidry transfer. Blots were rinsed with DI H2O and allowed to completely dry at room temperature before blocking with LiCor Intercept PBS Blocking Buffer (LiCor, Lincoln, NE; Cat# 927-90001) for 1 h. After blocking, primary antibodies (1:1000) suspended in blocking buffer supplemented with 0.1% Tween were added, shaken at room temperature for 1 h, and stored at 4 °C overnight. Membranes were then washed 6 times for 5 minutes each with 1X PBS supplemented with 0.5% Tween while shaking at room temperature, and secondary antibodies (1:15,000) were applied and incubated for 1 h. Afterward, membranes were washed as previously described above and imaged at 700 nm using the LiCor Odyssey CLx Imaging System. Quantification of immunoblots was performed using the LiCor Image Studio software, normalizing to β-Actin, and calculating relative fold change compared to nontreated samples. Antibodies used included phospho-STAT3 (Y705) (Cell Signaling Technology, Danvers, MA; cat. no. 9145), phospho-AKT (S473) (Cell Signaling Technology, Danvers, MA; cat. no. 4060), phospho-JNK ([…]/[…]) (Cell Signaling Technology, Danvers, MA; cat. no. 4668), phospho-ERK (T202/Y204) (Cell Signaling Technology, Danvers, MA; cat. no. 9101), β-Actin (Cell Signaling Technology; cat. no. 3700), and donkey antirabbit IRDye 800CW (LiCor, Lincoln, NE; Cat# 925-32213).

Compound | Chemical shift perturbation of 15N OSM on titration (15N OSM) | Kd (OSM) | Cytotoxicity / cell viability via MTS assay [1] | Inhibition of OSM-mediated signaling cascades by immunoblot (words) [2] | Inhibition of OSM-mediated signaling cascades by immunoblot (words) ([2]; listed as 10B)
O=C(O)/C=C/c1cc(-c2ccc3c(c2)OCO3)c(-c2ccc3c(c2)OCO3)o1 [SMI-10B, (E)-3-(4,5-Bis(benzo[d][1,3]dioxol-5-yl)furan-2-yl)acrylic acid] | clear shifts in the fast exchange regime | 12.9 ± 1.5 µM | Minimal toxicity; also recorded: minimal to no cytotoxicity at high concentrations | significant reductions, near nontreated levels | capable of inhibiting multiple cascades
O=C(O)/C=C/c1cc(-c2ccc3cc[nH]c3c2)c(-c2ccc3cc[nH]c3c2)o1 [SMI-10B13, (E)-3-(4,5-di(1H-Indol-6-yl)furan-2-yl)acrylic Acid] | binding to the same site as SMI-10B with a higher affinity | ~7 µM and 6.6 µM | Minimal toxicity; also recorded: minimal to no cytotoxicity at high concentrations | most effective; also recorded: better at inhibiting pSTAT3, pAKT, pJNK, and pERK signaling | –
